These results are taken from patent US6589984B1, “Benzofurylpyrone derivatives” (Teijin Limited, priority 1998, dated 2003).

Structures are written as SMILES.

For one experiment, the system named is Human hepatic cancer cells HepG2. The experiment is described as follows: TG production inhibiting activity (14C-acetic acid incorporation into TG) in HepG2 cells. It counts as cell-based. As to conditions: Homo sapiens, HepG2; group criterion, alternatives: IC50 at least 10 μM and less than 100 μM, or at least 5% and less than 30% inhibition at 1 μM, or at least 30% and less than 50% inhibition at 10 μM. In short, it runs like this: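 HepG2 cells cultured 6 days in eRDF with 10% bovine serum, then in serum-free eRDF given compound (diluted from 20 mM DMSO stock) plus 14C-acetic acid for one day at 37 °C, 5% CO2. Lipids extracted with hexane/isopropanol 2:1 and separated by TLC; the TG spot was cut out and counted by liquid scintillation.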
Regarding `Cc1c(-c2cc3cc(OCc4ccccc4Cl)ccc3o2)oc(=O)c(C)c1O` [Example 240, 6-(5-(2-chlorobenzyloxy)benzofuran-2-yl)-3,5-dimethyl-4-hydroxy-2H-pyran-2-one], the IC50 was 10 to 100 µM.

In turn, `Cc1c(-c2cc3cc(N(C)C(=O)c4cccnc4)ccc3o2)oc(=O)c(C)c1O` [Example 253, 3,5-dimethyl-4-hydroxy-6-(5-(N-methyl-N-(3-pyridylcarbonyl)amino)benzofuran-2-yl)-2H-pyran-2-one] showed an IC50 of 10 to 100 µM.

`Cc1c(-c2cc3cc(N(C)C(=O)C(C)C)ccc3o2)oc(=O)c(C)c1O` [Example 254, 3,5-dimethyl-4-hydroxy-6-(5-(N-isobutyryl-N-methylamino)benzofuran-2-yl)-2H-pyran-2-one] returned an IC50 of 10 to 100 µM.

The molecule `Cc1c(-c2cc3c(OCc4ccccc4)cccc3o2)oc(=O)c(C)c1O` [Example 258, 6-(4-benzyloxybenzofuran-2-yl)-3,5-dimethyl-4-hydroxy-2H-pyran-2-one] showed an IC50 of 10 to 100 µM.

Molecule `CC(=O)Oc1c(C)c(-c2cc3cc(O)ccc3o2)oc(=O)c1C` [Example 261, 4-acetyloxy-3,5-dimethyl-6-(5-hydroxybenzofuran-2-yl)-2H-pyran-2-one] registered an IC50 of 10 to 100 µM.

`Cc1c(-c2cc3cc(O)ccc3o2)oc(=O)c(C)c1O` [Example 262, 3,5-dimethyl-4-hydroxy-6-(5-hydroxybenzofuran-2-yl)-2H-pyran-2-one] yielded an IC50 of 10 to 100 µM.

Turning to `COc1ccc(C(=O)Oc2ccc3oc(-c4oc(=O)c(C)c(OC(C)=O)c4C)cc3c2)cc1` [Example 263, 4-acetyloxy-3,5-dimethyl-6-(5-(4-methoxybenzoyloxy)benzofuran-2-yl)-2H-pyran-2-one], the IC50 lay in the range of 10 to 100 µM.

With `CC(=O)Oc1c(C)c(-c2cc3cc(C(=O)O)ccc3o2)oc(=O)c1C` [Example 264, 4-acetyloxy-6-(5-carboxybenzofuran-2-yl)-3,5-dimethyl-2H-pyran-2-one], the concentration for half-maximal inhibition (IC50) lay within 10 to 100 µM.

Regarding `COc1cccc2oc(-c3oc(=O)c(C)c(OC(C)=O)c3C)cc12` [Example 266, 4-acetyloxy-3,5-dimethyl-6-(4-methoxybenzofuran-2-yl)-2H-pyran-2-one], the 50% inhibitory concentration (IC50) lay in the range of 10 to 100 µM.

For `COc1cccc2oc(-c3oc(=O)c(C)c(O)c3C)cc12` [Example 267, 3,5-dimethyl-4-hydroxy-6-(4-methoxybenzofuran-2-yl)-2H-pyran-2-one], the IC50 was in the range of 10 to 100 µM.

Take `CC(=O)Oc1ccc2oc(-c3oc(=O)c(C)c(OC(C)=O)c3C)cc2c1` [Example 269, 4-acetyloxy-6-(5-acetyloxybenzofuran-2-yl)-3,5-dimethyl-2H-pyran-2-one]: the IC50 was 10 to 100 µM.

For `Cc1c(-c2cc3ccc(O)cc3o2)oc(=O)c(C)c1O` [Example 272, 3,5-dimethyl-4-hydroxy-6-(6-hydroxybenzofuran-2-yl)-2H-pyran-2-one], the IC50 was in the range of 10 to 100 µM.

As to `COc1ccc2cc(-c3oc(=O)c(C)c(OC(C)=O)c3C)oc2c1` [Example 273, 4-acetyloxy-3,5-dimethyl-6-(6-methoxybenzofuran-2-yl)-2H-pyran-2-one], the IC50 was in the range of 10 to 100 µM.

In turn, `CC(=O)Oc1ccc2cc(-c3oc(=O)c(C)c(OC(C)=O)c3C)oc2c1` [Example 275, 4-acetyloxy-6-(6-acetyloxybenzofuran-2-yl)-3,5-dimethyl-2H-pyran-2-one] had an IC50 of 10 to 100 µM.

`COC(=O)CCOc1ccc2cc(-c3oc(=O)c(C)c(OC(C)=O)c3C)oc2c1` [Example 278, 4-acetyloxy-3,5-dimethyl-6-(6-(2-(methoxycarbonyl)ethoxy)benzofuran-2-yl)-2H-pyran-2-one] registered an IC50 of 10 to 100 µM.

`CC(=O)OCCOc1ccc2cc(-c3oc(=O)c(C)c(OC(C)=O)c3C)oc2c1` [Example 280, 4-acetyloxy-6-(6-(2-(acetyloxy)ethoxy)benzofuran-2-yl)-3,5-dimethyl-2H-pyran-2-one]: the IC50 was in the range of 10 to 100 µM.

Turning to `Cc1c(-c2cc3cccc(O)c3o2)oc(=O)c(C)c1O` [Example 281, 3,5-dimethyl-4-hydroxy-6-(7-hydroxybenzofuran-2-yl)-2H-pyran-2-one], the IC50 is 10 to 100 µM.

Take `CC(=O)Oc1c(C)c(-c2cc3cccc(OC(C)=O)c3o2)oc(=O)c1C` [Example 284, 4-acetyloxy-6-(7-acetyloxybenzofuran-2-yl)-3,5-dimethyl-2H-pyran-2-one]: the IC50 is 10 to 100 µM.

Take `Cc1c(-c2cc3cccc(OCc4ccccc4)c3o2)oc(=O)c(C)c1O` [Example 286, 6-(7-benzyloxybenzofuran-2-yl)-3,5-dimethyl-4-hydroxy-2H-pyran-2-one]: the concentration for half-maximal inhibition (IC50) was in the range of 10 to 100 µM.

Regarding `CC(=O)Oc1c(C)c(-c2cc3ccccc3o2)oc(=O)c1C(C)C` [Example 287, 4-acetyloxy-6-(benzofuran-2-yl)-3-isopropyl-5-methyl-2H-pyran-2-one], the IC50 is 10 to 100 µM.

Staying with this experiment, now noted: Homo sapiens, HepG2; group criterion, alternatives: IC50 less than 10 μM, or at least 30% inhibition at 1 μM, or at least 50% inhibition at 10 μM.
`COc1cccc(COc2ccc3oc(-c4oc(=O)c(C)c(O)c4C)cc3c2)c1` [Example 236, 3,5-dimethyl-4-hydroxy-6-(5-(3-methoxybenzyloxy)benzofuran-2-yl)-2H-pyran-2-one]: the IC50 is below 10 µM.

Regarding `Cc1c(-c2cc3cc(OCc4cccc(Cl)c4)ccc3o2)oc(=O)c(C)c1O` [Example 242, 6-(5-(3-chlorobenzyloxy)benzofuran-2-yl)-3,5-dimethyl-4-hydroxy-2H-pyran-2-one], the IC50 is below 10 µM.

Molecule `Cc1c(-c2cc3cc(OCc4cncs4)ccc3o2)oc(=O)c(C)c1O` [Example 243, 3,5-dimethyl-4-hydroxy-6-(5-(5-thiazolylmethoxy)benzofuran-2-yl)-2H-pyran-2-one] gave an IC50 below 10 µM.

Take `CC(=O)Oc1c(C)c(-c2cc3cc(OCc4sc(Cl)nc4Cl)ccc3o2)oc(=O)c1C` [Example 244, 4-acetyloxy-6-(5-(2,4-dichloro-5-thiazolylmethoxy)benzofuran-2-yl)-3,5-dimethyl-2H-pyran-2-one]: the IC50 was below 10 µM.

`Cc1c(-c2cc3cc(OCc4ccsc4)ccc3o2)oc(=O)c(C)c1O` [Example 246, 3,5-dimethyl-4-hydroxy-6-(5-(3-thienylmethoxy)benzofuran-2-yl)-2H-pyran-2-one] had an IC50 below 10 µM.

`Cc1c(-c2cc3cc(OCc4cocn4)ccc3o2)oc(=O)c(C)c1O` [Example 249, 3,5-dimethyl-4-hydroxy-6-(5-(4-oxazolylmethoxy)benzofuran-2-yl)-2H-pyran-2-one] showed an IC50 below 10 µM.

Take `Cc1c(-c2cc3cc(N(C)C(=O)c4ccccc4)ccc3o2)oc(=O)c(C)c1O` [Example 250, 6-(5-(N-benzoyl-N-methylamino)benzofuran-2-yl)-3,5-dimethyl-4-hydroxy-2H-pyran-2-one]: the 50% inhibitory concentration (IC50) was below 10 µM.

`Cc1c(-c2cc3cc(N(C)C(=O)Cc4ccccc4)ccc3o2)oc(=O)c(C)c1O` [Example 251, 3,5-dimethyl-4-hydroxy-6-(5-(N-methyl-N-(phenylacetyl)amino)benzofuran-2-yl)-2H-pyran-2-one] returned an IC50 below 10 µM.

For `Cc1c(-c2cc3cc(N(C)C(=O)c4cccs4)ccc3o2)oc(=O)c(C)c1O` [Example 252, 3,5-dimethyl-4-hydroxy-6-(5-(N-methyl-N-(2-thienylcarbonyl)amino)benzofuran-2-yl)-2H-pyran-2-one], the IC50 is below 10 µM.

Take `Cc1c(-c2cc3cc(N(C)C(=O)OC(C)(C)C)ccc3o2)oc(=O)c(C)c1O` [Example 255, 6-(5-(N-(t-butoxycarbonyl)-N-methylamino)benzofuran-2-yl)-3,5-dimethyl-4-hydroxy-2H-pyran-2-one]: the IC50 was below 10 µM.

`CC(=O)Oc1c(C)c(-c2cc3cc(OS(=O)(=O)C(F)(F)F)ccc3o2)oc(=O)c1C` [Example 257, 4-acetyloxy-3,5-dimethyl-6-(5-trifluoromethanesulfonyloxybenzofuran-2-yl)-2H-pyran-2-one] had an IC50 below 10 µM.

For `COC(=O)c1ccc2oc(-c3oc(=O)c(C)c(OC(C)=O)c3C)cc2c1` [Example 259, 4-acetyloxy-3,5-dimethyl-6-(5-(methoxycarbonyl)benzofuran-2-yl)-2H-pyran-2-one], the IC50 is below 10 µM.

As to `CC(=O)Oc1c(C)c(-c2cc3c(OCc4ccccc4)cccc3o2)oc(=O)c1C` [Example 260, 4-acetyloxy-6-(4-benzyloxybenzofuran-2-yl)-3,5-dimethyl-2H-pyran-2-one], the IC50 was below 10 µM.

The molecule `CC(=O)Oc1c(C)c(-c2cc3c(OC(C)=O)cccc3o2)oc(=O)c1C` [Example 265, 4-acetyloxy-6-(4-acetyloxybenzofuran-2-yl)-3,5-dimethyl-2H-pyran-2-one] registered an IC50 below 10 µM.

As to `COc1ccc2oc(-c3oc(=O)c(C)c(OC(C)=O)c3C)cc2c1` [Example 268, 4-acetyloxy-3,5-dimethyl-6-(5-methoxybenzofuran-2-yl)-2H-pyran-2-one], the IC50 was below 10 µM.

Take `CC(=O)Oc1c(C)c(-c2cc3cc(OCc4ccccc4)ccc3o2)oc(=O)c1C` [Example 270, 4-acetyloxy-6-(5-benzyloxybenzofuran-2-yl)-3,5-dimethyl-2H-pyran-2-one]: the IC50 was below 10 µM.

The molecule `Cc1c(-c2cc3cc(OCc4ccccc4)ccc3o2)oc(=O)c(C)c1O` [Example 271, 6-(5-benzyloxybenzofuran-2-yl)-3,5-dimethyl-4-hydroxy-2H-pyran-2-one] yielded an IC50 below 10 µM.

As for `CC(=O)Oc1c(C)c(-c2cc3cc(OS(=O)(=O)c4ccc(C)cc4)ccc3o2)oc(=O)c1C` [Example 274, 4-acetyloxy-3,5-dimethyl-6-(5-p-toluenesulfonyloxybenzofuran-2-yl)-2H-pyran-2-one], the IC50 is below 10 µM.

In turn, `CC(=O)Oc1c(C)c(-c2cc3cccc(OCc4ccccc4)c3o2)oc(=O)c1C` [Example 285, 4-acetyloxy-6-(7-benzyloxybenzofuran-2-yl)-3,5-dimethyl-2H-pyran-2-one] came in with an IC50 below 10 µM.
